Experimental data from US8697127B2, “Method for preparing microspheres and microspheres produced thereby” (Ewha University-Industry Collaboration Foundation, priority 2008, dated 2014).

Key:
[1] = Aripiprazole encapsulation ratio of PLGA microparticles (HPLC); format: physicochemical; settings: PLGA 4A/0.25 g; 60 mg of aripiprazole; Ethyl formate; 5 mL of 8 M NaOH
Protocol: (§1) 0.25 g of 4A was dissolved in 4 mL of ethyl formate. Then, 60 mg of aripiprazole was dissolved to prepare a dispersed phase. The solution was added to 40 mL of 0.5% PVA aqueous solution and stirred. After adding 5 mL of 8 M NaOH to the resultant o/w emulsion, followed by reaction for 30 minutes, 40 mL of distilled water was further added and, after stirring, microparticles were recovered by filtration. The microparticles were redispersed in 16 mL of 0.5% PVA aqueous solution. After adding distilled water to make 80 mL, the solution was stirred. After filtration, the microparticles were dried overnight in a vacuum dryer.
Some of the microparticles including aripiprazole were accurately weighed and dissolved in 4 mL of tetrahydrofuran. After diluting 6 times with ethanol, the solution was filtered to remove the PLGA precipitate. Some of the filtrate (20 μl) was subjected to HPLC (Shimadzu LC-20AD) for measurement of aripiprazole concentration. Drug encapsulation ratio (%) was calculated using the equations given in Example <7-2>.

[2] = Encapsulation ratio of docetaxel, piroxicam, rivastigmine or tolterodine in PLGA microparticles (HPLC); format: physicochemical; settings: 0.25 g of 7E, 5 mL of 7 M NaOH
Protocol: Then, 0.25 g of 7E was dissolved to prepare a dispersed phase. The solution was added to 40 mL of 0.5% PVA aqueous solution and stirred. After adding 5 mL of 7 M NaOH to the resultant o/w emulsion, followed by reaction for 30 minutes, 40 mL of distilled water was further added and, after stirring, microparticles were recovered by filtration. The microparticles were redispersed in 16 mL of 0.5% PVA aqueous solution. After adding distilled water to make 80 mL, the solution was stirred. […] After diluting 6 times with ethanol, the solution was filtered to remove the PLGA precipitate.

[3] = background statement on organic solvents; cited from earlier work
[4] = Thermogravimetric analysis of microparticles; format: physicochemical; settings: up to 150° C.; isopropyl formate, 0.25 g of 7E and 250 mg of progesterone; 10° C./min, nitrogen
Protocol: The microparticles prepared in Example <7-3> (using isopropyl formate, 0.25 g of 7E and 250 mg of progesterone) and microparticles not including progesterone were analyzed using a thermogravimetric analyzer (TGA 2050). Nitrogen was used as a purge gas. Change in weight of the microparticles was automatically recorded while increasing temperature at a rate of 10° C./min.

[5] = Progesterone encapsulation ratio of PLGA microparticles (HPLC); format: physicochemical
Protocol: 0.25 g of 7E or 4A was dissolved in 4 mL of ethyl acetate. […] After stirring and filtration, microparticles were recovered. The microparticles were redispersed in 16 mL of 0.5% PVA solution and stirred, after adding distilled water to make 80 mL. […] Similarly, microparticles encapsulating progesterone were prepared using ethyl formate instead of ethyl acetate and using 6 mL of 10 M NaOH or 5 mL of 10 M HCl as a decomposition reagent. Some of the microparticles prepared in Example <7-1> were accurately weighed and dissolved in 4 mL of tetrahydrofuran. After diluting 6 times with methanol, the solution was filtered to remove the PLGA precipitate. Some of the filtrate (20 μl) was subjected to HPLC (Shimadzu LC-20AD, Luna 5 m C18(2) column) for measurement of progesterone concentration. Theoretical drug load (%) and actual drug load (%) were calculated from the following equations, and their ratio was defined as drug encapsulation ratio (%). Theoretical drug load (%)=(Weight of drug used (mg)/[Weight of PLGA used (mg)+Weight of drug used (mg)])×100 Actual drug load (%)=(Weight of drug encapsulated in microparticles (mg)/Weight of microparticles used for encapsulation ratio measurement (mg))×100 Drug encapsulation ratio (%)=(Actual drug load (%)/Theoretical drug load (%))×100 0.25 g of 7E was dissolved in 4 mL of isopropyl formate or propyl formate. […] After stirring and filtration, microparticles were recovered. The microparticles were redispersed in 16 mL of 0.5% PVA solution and stirred, after adding distilled water to make 80 mL. After filtration, the microparticles were in a vacuum dryer.

[6] = Risperidone encapsulation ratio of PLGA microparticles (HPLC); format: physicochemical; settings: PLGA 4A/0.25 g; 60 mg of risperidone; Ethyl formate; 5 mL of 8 M NaOH
Protocol: as §1, with “risperidone” for “aripiprazole”
Some of the microparticles including risperidone were accurately weighed and dissolved in 4 mL of tetrahydrofuran. After diluting 6 times with ethanol, the solution was filtered to remove the PLGA precipitate. Some of the filtrate (20 μl) was subjected to HPLC (Shimadzu LC-20AD) for measurement of risperidone concentration. Drug encapsulation ratio (%) was calculated using the equations given in Example <7-2>.

[7] = 50 mg of docetaxel, Ethyl acetate
[8] = 50 mg of piroxicam, Ethyl formate
[9] = PLGA 4A/0.25 g, progesterone 60 mg, 10M NaOH 5 mL, ethyl acetate
[10] = PLGA 4A/0.25 g, progesterone 60 mg, 10M NaOH 6 mL, ethyl formate
[11] = PLGA 4A/0.25 g, progesterone 250 mg, 10M NaOH 5 mL, ethyl acetate
[12] = PLGA 4A/0.25 g, progesterone 250 mg, 10M NaOH 6 mL, ethyl formate
[13] = PLGA 7E/0.25 g, progesterone 60 mg, 10M HCl 5 mL, ethyl formate
[14] = PLGA 7E/0.25 g, progesterone 60 mg, 10M NaOH 5 mL, ethyl acetate
[15] = PLGA 7E/0.25 g, progesterone 60 mg, 10M NaOH 6 mL, ethyl formate
[16] = PLGA 7E/0.25 g, progesterone 100 mg, 10M HCl 5 mL, ethyl formate
[17] = PLGA 7E/0.25 g, progesterone 160 mg, 10M HCl 5 mL, ethyl formate
[18] = PLGA 7E/0.25 g, progesterone 200 mg, 10M HCl 5 mL, ethyl formate
[19] = PLGA 7E/0.25 g, progesterone 250 mg, 10M HCl 5 mL, ethyl formate
[20] = PLGA 7E/0.25 g, progesterone 250 mg, 10M NaOH 5 mL, ethyl acetate
[21] = PLGA 7E/0.25 g, progesterone 250 mg, 10M NaOH 6 mL, ethyl formate
[22] = 40 μl of rivastigmine, Ethyl acetate (table)
[23] = 40 mg of tolterodine, Ethyl formate

In the case of O=C1CCc2ccc(OCCCCN3CCN(c4cccc(Cl)c4Cl)CC3)cc2N1 [aripiprazole], the “Average encapsulation ratio of 3 batches” value [1] is reported as 72.3±2.0%, the “Encapsulation ratio (%) Batch 1” value [1] is reported as 72.2% and the “Encapsulation ratio (%) Batch 2” value [1] is reported as 74.3%. The “Encapsulation ratio (%) Batch 3” value [1] was 70.3%.
For CC(=O)O[C@@]12CO[C@@H]1C[C@H](O)[C@@]1(C)C(=O)[C@H](O)C3=C(C)[C@@H](OC(=O)[C@H](O)[C@@H](NC(=O)OC(C)(C)C)c4ccccc4)C[C@@](O)([C@@H](OC(=O)c4ccccc4)[C@H]21)C3(C)C [docetaxel], the “Encapsulation ratio (%) Batch 1” value [2, 7] was 83.2%, the “Encapsulation ratio (%) Batch 2” value [2, 7] was 80.2% and the “Encapsulation ratio (%) Batch 3” value [2, 7] was 84.2%.
For CCOC(C)=O [ethyl acetate], the water solubility [3] is given as 8.7 % by weight.
In the case of ClCCl [methylene chloride], the water solubility [3] is given as 1.32 % by weight.
In the case of CN1C(C(=O)Nc2ccccn2)=C(O)c2ccccc2S1(=O)=O [piroxicam], the “Encapsulation ratio (%) Batch 1” value [2, 8] is reported as 76.2%, the “Encapsulation ratio (%) Batch 2” value [2, 8] is reported as 81.2% and the “Encapsulation ratio (%) Batch 3” value [2, 8] is reported as 79.2%.
For CC(=O)[C@H]1CC[C@H]2[C@@H]3CCC4=CC(=O)CC[C@]4(C)[C@H]3CC[C@]12C [progesterone], the “weight loss of the microparticles” value [4] was 0.75%, the “Encapsulation ratio (%) Batch 1” value [5, 9] was 90.5% and the “Encapsulation ratio (%) Batch 2” value [5, 9] was 92.8%. The “Encapsulation ratio (%) Batch 3” value [5, 9] was 95.3%, the “Encapsulation ratio (%) Batch 1” value [5, 10] was 92.0% and the “Encapsulation ratio (%) Batch 2” value [5, 10] was 93.3%. The “Encapsulation ratio (%) Batch 3” value [5, 10] was 95.6%, the “Encapsulation ratio (%) Batch 1” value [5, 11] was 93.2% and the “Encapsulation ratio (%) Batch 2” value [5, 11] was 92.2%. The “Encapsulation ratio (%) Batch 3” value [5, 11] was 98.5%, the “Encapsulation ratio (%) Batch 1” value [5, 12] was 96.2% and the “Encapsulation ratio (%) Batch 2” value [5, 12] was 93.2%. The “Encapsulation ratio (%) Batch 3” value [5, 12] was 100.7%, the “Encapsulation ratio (%) Batch 1” value [5, 13] was 84.1% and the “Encapsulation ratio (%) Batch 2” value [5, 13] was 88.7%. The “Encapsulation ratio (%) Batch 3” value [5, 13] was 86.1%, the “Encapsulation ratio (%) Batch 1” value [5, 14] was 93.8% and the “Encapsulation ratio (%) Batch 2” value [5, 14] was 92.3%. The “Encapsulation ratio (%) Batch 3” value [5, 14] was 96.0%, the “Encapsulation ratio (%) Batch 1” value [5, 15] was 93.9% and the “Encapsulation ratio (%) Batch 2” value [5, 15] was 94.0%. For the same compound, the “Encapsulation ratio (%) Batch 3” value [5, 15] was 91.6%, the “Encapsulation ratio (%) Batch 1” value [5, 16] was 89.0% and the “Encapsulation ratio (%) Batch 2” value [5, 16] was 92.8%. For the same compound, the “Encapsulation ratio (%) Batch 3” value [5, 16] was 91.5%, the “Encapsulation ratio (%) Batch 1” value [5, 17] was 98.9% and the “Encapsulation ratio (%) Batch 2” value [5, 17] was 102.0%. The “Encapsulation ratio (%) Batch 3” value [5, 17] was 96.9%, the “Encapsulation ratio (%) Batch 1” value [5, 18] was 99.2% and the “Encapsulation ratio (%) Batch 2” value [5, 18] was 102.0%. The “Encapsulation ratio (%) Batch 3” value [5, 18] was 95.5%, the “Encapsulation ratio (%) Batch 1” value [5, 19] was 101.0% and the “Encapsulation ratio (%) Batch 2” value [5, 19] was 101.0%. For the same compound, the “Encapsulation ratio (%) Batch 3” value [5, 19] was 99.6%, the “Encapsulation ratio (%) Batch 1” value [5, 20] was 92.8% and the “Encapsulation ratio (%) Batch 2” value [5, 20] was 92.0%. The “Encapsulation ratio (%) Batch 3” value [5, 20] was 97.7%, the “Encapsulation ratio (%) Batch 1” value [5, 21] was 95.5% and the “Encapsulation ratio (%) Batch 2” value [5, 21] was 98.5%. The “Encapsulation ratio (%) Batch 3” value [5, 21] was 99.7%.
For Cc1nc2n(c(=O)c1CCN1CCC(c3noc4cc(F)ccc34)CC1)CCCC2 [risperidone], the “Average encapsulation ratio of 3 batches” value [6] was 75.0±1.4%, the “Encapsulation ratio (%) Batch 1” value [6] was 75.2% and the “Encapsulation ratio (%) Batch 2” value [6] was 73.6%. For the same compound, the “Encapsulation ratio (%) Batch 3” value [6] was 76.3%.
For CCN(C)C(=O)Oc1cccc([C@H](C)N(C)C)c1 [rivastigmine], the “Encapsulation ratio (%) Batch 1” value [2, 22] was 74.2%, the “Encapsulation ratio (%) Batch 2” value [2, 22] was 79.2% and the “Encapsulation ratio (%) Batch 3” value [2, 22] was 78.1%.
For Cc1ccc(O)c([C@H](CCN(C(C)C)C(C)C)c2ccccc2)c1 [tolterodine], the “Encapsulation ratio (%) Batch 1” value [2, 23] was 70.3%, the “Encapsulation ratio (%) Batch 2” value [2, 23] was 77.3% and the “Encapsulation ratio (%) Batch 3” value [2, 23] was 73.2%.
